Drawing on PubChem BioAssay (NCI), this text covers TGI and GI50 for 12 molecules.

Where “and” joins values, the source holds several entries; their conditions need not be identical. Equal values may be shown once.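 Protocol summary: plate cells (96-well), add compound at 5 concentrations, incubate 48 h, interpolate endpoints linearly. At the GI50, growth is halved. TGI is the concentration that stops growth completely.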

What all share (assay): DTP human tumour cell line panel, 48 h
Experiment [1] has as its system HCC-2998 colon.
Experiment [2] concerns HCT-116 colon.
Experiment [3] relates to HCT-15 colon.
For experiment [4], the system named is KM12 colon.
Experiment [5] deals with MALME-3M melanoma.
In experiment [6] the test system is MDA-MB-435.
The subject of experiment [7] is NCI-H226 lung.
Experiment [8] has as its system PC-3 prostate.
The test system of experiment [9] is SF-539 CNS.
For experiment [10], the system named is SK-MEL-28 melanoma.
In experiment [11] the test system is SN12C renal.
Experiment [12] has as its system U251 CNS.
In experiment [13] the test system is HS 578T breast.

On to `C=CCN1C(=O)/C(=C/c2ccc(OC)cc2)N=C1SC1OC(COC(C)=O)C(OC(C)=O)C(OC(C)=O)C1OC(C)=O` (stereo unspecified), for which the TGI – broadly, the concentration giving total growth inhibition – in experiment [1] is more than 100 µM; in experiment [2], more than 100 µM; in experiment [3], more than 100 µM; in experiment [4] it was 62.5 µM and > 100 µM; in [5], more than 100 µM; in experiment [6], 46.5 µM and > 100 µM. Also, the total growth inhibition concentration (TGI) in [7] is 55.5 µM and > 100 µM; in experiment [8] it was 37.1 µM and > 100 µM; in experiment [9], 44.5 µM and > 100 µM; in [10], more than 100 µM; in experiment [11] it was 89.4 µM; in [12] it was 58.8 µM and > 100 µM. The GI50 – broadly, the concentration giving 50% growth inhibition – is 21.4 µM and > 100 µM in experiment [4]; 18.6 µM and > 100 µM in [6]; 16.9 µM and 52.6 µM in experiment [8]; 19.9 µM and 42.8 µM in experiment [9]; 24.6 µM and > 100 µM in experiment [10]; 14.8 µM and 99.1 µM in experiment [12].
`O=C(/C=C/c1ccc(O)cc1)c1cc(-c2cc(CCC(=O)c3ccc(O)cc3O)ccc2O)c(O)cc1O`: the TGI in experiment [2], in experiment [3], in [13], in experiment [4], in experiment [5] and in experiment [6] was more than 50 µM throughout. For the same molecule, the TGI was more than 50 µM in experiment [8]; 24.8 µM in [9]; more than 50 µM in experiment [10]; more than 50 µM in experiment [11]; more than 50 µM in experiment [12].
As for `O=C1/C(=C/c2ccc(OC(=O)c3ccc(Cl)cc3)cc2)CCC/C1=C\c1ccc(OC(=O)c2ccc(Cl)cc2)cc1`, the TGI in experiment [1], in experiment [2], in experiment [3], in experiment [13], in [4] and in [6] was more than 100 µM in each case. Moreover, the TGI in [8], in experiment [9], in [10], in experiment [11] and in [12] was more than 100 µM throughout.
Regarding `Cn1nc(S(N)(=O)=O)s/c1=N/S(=O)(=O)c1ccc(N)cc1`, the TGI in experiment [1], in [3], in experiment [4], in experiment [5], in experiment [7] and in [8] was more than 100 µM throughout. In addition, the TGI in experiment [9], in experiment [10] and in experiment [12] was more than 100 µM each time.
As to `CC(=O)OC1CC2C(C)(C)OC(=O)CC(OC(C)=O)[C@]2(C)C2CCC3(C)C(=CCC3c3ccoc3)[C@]12C` (stereo partly specified), the TGI in experiment [1] was 52.4 µM; in experiment [2], 58.6 µM; in experiment [3] it was more than 100 µM; in experiment [4] it was more than 100 µM; in experiment [5], 92.6 µM; in [7], 69.6 µM. The TGI in [9] is 93.3 µM; in [10], more than 100 µM; in experiment [11], more than 100 µM; in experiment [12], more than 100 µM.
Consider `O=c1[nH]cc(COCC(O)CO)c(=O)[nH]1` (stereo unspecified), for which the TGI in [2], in [3], in experiment [4], in experiment [5], in experiment [7] and in experiment [9] was more than 100 µM in each case. The TGI in [10], in experiment [11] and in [12] was more than 100 µM in each case.
As for `CC1CN=C(NS(=O)(=O)c2cc(C(=O)Nc3ccccc3)c(Cl)cc2S)NN1` (stereo unspecified), the TGI in experiment [1] is more than 100 µM; in experiment [2], more than 100 µM; in [3] it was more than 100 µM; in [4], more than 100 µM; in [5] it was 77 µM; in experiment [6] it was 52.5 µM. Moreover, the TGI in [7], in experiment [8], in experiment [9], in experiment [10], in experiment [11] and in experiment [12] was more than 100 µM each time.
For the molecule `Brc1ccc(N=Nc2ccc3ccccc3n2)cc1`, the TGI was 30.1 µM in experiment [2]; more than 100 µM in [3]; 56.6 µM in experiment [13]; more than 100 µM in experiment [4]; more than 100 µM in [5]; more than 100 µM in experiment [6]. The TGI is 66.9 µM in experiment [7]; more than 100 µM in [8]; 55.2 µM in [9]; more than 100 µM in experiment [11]; 36.2 µM in experiment [12].
On to `Cc1cc(C)nc(NS(=O)(=O)c2ccc(Nc3nnc(/C=C/c4c(O)ccc5ccccc45)c(=O)n3N)cc2)n1`, for which the TGI was 42 µM in experiment [2]; 30.9 µM in experiment [3]; more than 100 µM in experiment [13]; 92.7 µM in experiment [5]; 57.6 µM in experiment [6]; 73.2 µM in experiment [11].
Take `O=C(CSc1nc2ccc(I)cc2c(=O)n1Cc1ccccc1)NN1C(=O)CSC1c1ccccc1` (stereo unspecified): the TGI in experiment [1] was 53.2 µM; in experiment [2] it was 56.1 µM; in [3] it was 40.5 µM; in experiment [4], 54.9 µM; in experiment [6] it was 69.6 µM; in experiment [7] it was more than 100 µM. Further, the TGI in experiment [8] was more than 100 µM; in [9], 70.7 µM; in experiment [10] it was 95.9 µM; in experiment [11], 56.1 µM; in experiment [12] it was 69.5 µM.
`Cc1ccc(S(=O)(=O)NC(=O)NCC(N)=O)cc1`: the TGI in experiment [2], in [3], in [13], in experiment [4], in experiment [5] and in experiment [8] was more than 100 µM in each case. Further, the TGI in experiment [9], in [10], in experiment [11] and in experiment [12] was more than 100 µM each time.
`O=C1COc2cc3c(cc2N1)SCCC(=O)N3`: the TGI in experiment [1], in experiment [2], in experiment [4], in experiment [5], in [7] and in [9] was more than 100 µM each time. The TGI in [10] and in experiment [11] was more than 100 µM throughout.
